{"source": "paper PMC6230386", "about": "“Gossypol from Cottonseeds Ameliorates Glucose Uptake by Mimicking Insulin Signaling and Improves Glucose Homeostasis in Mice with Streptozotocin-Induced Diabetes” (Oxidative Medicine and Cellular Longevity, 2018)", "target": "α-glucosidase", "assay": "pNPG hydrolysis at […] nm; Lineweaver-Burk kinetics", "assay_type": "biochemical, Saccharomyces cerevisiae", "data": [{"smiles": "Cc1cc2c(C(C)C)c(O)c(O)c(C=O)c2c(O)c1-c1c(C)cc2c(C(C)C)c(O)c(O)c(C=O)c2c1O", "note": "[GSP, gossypol]", "values": [{"measurement": "IC50", "value": "670 ± 440", "unit": "nM"}]}]}
